Results from article PMC7933434, “Entropy-driven binding of gut bacterial β-glucuronidase inhibitors ameliorates irinotecan-induced toxicity” (Communications Biology, 2021).
Several values for one entry are separate records, joined by “and”; a condition that tells them apart may be missing. Equal values may be shown once.

Columns and labels:
HsGUS (human GUS) = molecular target: T1, HsGUS (human GUS) (Homo sapiens, UniProt P08236); test: GUS inhibition assay, hydrolysis of 4-methylumbelliferyl-β-glucuronide, HsGUS; assay type: biochemical; parameters: GUS activity (hydrolysis rate of MUG): unit not given here; details: [Inhibitor 2] =75 μM
T1 construct: HsGUS was prepared as described[37]; made in house
T1 sequence (P08236 23-651): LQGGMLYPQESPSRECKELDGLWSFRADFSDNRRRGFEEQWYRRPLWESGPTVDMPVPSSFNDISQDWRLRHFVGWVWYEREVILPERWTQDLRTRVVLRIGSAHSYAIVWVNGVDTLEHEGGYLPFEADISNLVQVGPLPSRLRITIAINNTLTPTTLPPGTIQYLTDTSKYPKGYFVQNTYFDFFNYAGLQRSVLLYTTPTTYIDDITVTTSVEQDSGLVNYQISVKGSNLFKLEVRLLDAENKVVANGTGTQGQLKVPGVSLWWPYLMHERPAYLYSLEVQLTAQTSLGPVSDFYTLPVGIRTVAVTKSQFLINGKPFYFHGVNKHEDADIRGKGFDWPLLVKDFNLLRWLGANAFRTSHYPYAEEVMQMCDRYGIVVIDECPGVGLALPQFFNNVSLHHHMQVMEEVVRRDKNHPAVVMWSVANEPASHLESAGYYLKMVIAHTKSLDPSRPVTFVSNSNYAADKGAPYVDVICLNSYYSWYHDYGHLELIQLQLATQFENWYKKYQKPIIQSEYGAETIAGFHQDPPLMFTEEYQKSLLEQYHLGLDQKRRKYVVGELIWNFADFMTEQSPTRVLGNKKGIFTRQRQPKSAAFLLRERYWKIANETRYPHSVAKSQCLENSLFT

[1] = molecular target: BdGUS (Bifidobacterium dentium GUS) (Bifidobacterium dentium, UniProt D2Q7B1); test: biochemical; parameters: GUS activity (hydrolysis rate of MUG) / 1/v: unit not given here
Sequence of BdGUS (Bifidobacterium dentium GUS) (D2Q7B1 1-668): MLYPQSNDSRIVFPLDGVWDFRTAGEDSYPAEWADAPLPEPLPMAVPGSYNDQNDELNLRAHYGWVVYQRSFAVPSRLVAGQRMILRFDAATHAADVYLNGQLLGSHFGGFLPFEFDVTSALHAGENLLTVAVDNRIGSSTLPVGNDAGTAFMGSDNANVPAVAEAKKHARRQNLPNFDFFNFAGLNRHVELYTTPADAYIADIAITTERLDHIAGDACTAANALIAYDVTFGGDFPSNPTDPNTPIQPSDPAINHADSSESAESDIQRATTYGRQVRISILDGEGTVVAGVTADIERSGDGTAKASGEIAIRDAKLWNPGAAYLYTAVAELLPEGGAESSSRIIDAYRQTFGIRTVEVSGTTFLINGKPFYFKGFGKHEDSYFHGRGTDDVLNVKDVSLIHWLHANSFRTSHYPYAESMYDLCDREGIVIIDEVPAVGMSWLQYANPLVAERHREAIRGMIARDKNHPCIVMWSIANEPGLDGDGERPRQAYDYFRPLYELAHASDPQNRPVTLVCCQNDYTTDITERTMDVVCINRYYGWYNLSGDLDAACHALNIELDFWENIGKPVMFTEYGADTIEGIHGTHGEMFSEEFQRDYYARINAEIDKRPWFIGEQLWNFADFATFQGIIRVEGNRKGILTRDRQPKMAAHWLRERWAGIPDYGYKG

EcGUS = EcGUS (Escherichia coli, UniProt P05804); test: Isothermal titration calorimetry, EcGUS; assay type: binding; details: for entropy contribution to binding: sign (positive = favourable); for Kd / ΔG / ΔH / —TΔS: EcGUS, 298 K
Sequence of EcGUS (P05804 whole entry): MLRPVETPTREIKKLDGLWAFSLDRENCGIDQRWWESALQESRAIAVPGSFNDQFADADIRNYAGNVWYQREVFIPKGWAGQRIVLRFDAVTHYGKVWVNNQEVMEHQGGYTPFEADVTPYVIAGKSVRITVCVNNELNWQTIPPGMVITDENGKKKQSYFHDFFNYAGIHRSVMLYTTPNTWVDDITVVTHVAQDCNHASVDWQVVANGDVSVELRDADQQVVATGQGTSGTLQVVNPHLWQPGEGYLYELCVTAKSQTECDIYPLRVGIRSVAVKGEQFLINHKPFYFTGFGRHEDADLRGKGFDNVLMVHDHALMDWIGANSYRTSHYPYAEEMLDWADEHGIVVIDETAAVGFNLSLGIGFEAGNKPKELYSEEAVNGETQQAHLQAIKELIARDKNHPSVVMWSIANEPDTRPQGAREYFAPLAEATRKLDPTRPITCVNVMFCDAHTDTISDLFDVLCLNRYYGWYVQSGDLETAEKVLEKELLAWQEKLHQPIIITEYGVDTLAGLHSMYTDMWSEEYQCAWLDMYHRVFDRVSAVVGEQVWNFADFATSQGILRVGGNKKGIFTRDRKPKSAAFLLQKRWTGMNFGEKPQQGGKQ

[2] = molecular target: EcGUS (Escherichia coli GUS) (Escherichia coli, UniProt P05804); test: biochemical
Sequence of EcGUS (Escherichia coli GUS) (P05804 whole entry): as above

[3] = [Inhibitor 2] = 3.75 μM, [MUG] 0.375 mM
[4] = [Inhibitor 2] = 3.75 μM, [MUG] 0.75 mM
[5] = [Inhibitor 2] = 3.75 μM, [MUG] 1.5 mM
[6] = [Inhibitor 2] = 3.75 μM, [MUG] 3 mM
[7] = [Inhibitor 2] = 7.5 μM, [MUG] 0.375 mM
[8] = [Inhibitor 2] = 7.5 μM, [MUG] 0.75 mM
[9] = [Inhibitor 2] = 7.5 μM, [MUG] 1.5 mM
[10] = [Inhibitor 2] = 7.5 μM, [MUG] 3 mM
[11] = [Inhibitor 2] = 15 μM, [MUG] 0.375 mM
[12] = [Inhibitor 2] = 15 μM, [MUG] 0.75 mM
[13] = [Inhibitor 2] = 15 μM, [MUG] 1.5 mM
[14] = [Inhibitor 2] = 15 μM, [MUG] 3 mM
[15] = [Inhibitor 2] = 30 μM, [MUG] 0.375 mM
[16] = [Inhibitor 2] = 30 μM, [MUG] 0.75 mM
[17] = [Inhibitor 2] = 30 μM, [MUG] 1.5 mM
[18] = [Inhibitor 2] = 30 μM, [MUG] 3 mM
[19] = Tris buffer (250 mM NaCl, 20 mM Tris, pH 8.0)
[20] = phosphate buffer (250 mM NaCl, 20 mM KH2PO4, 100 mM Na2HPO4, pH 8.0)

CCC[C@@H]1NC[C@@H](O)[C@H](O)[C@H]1C(=O)O [Inhibitor 2, C6-propyl UIFG]
GUS activity (hydrolysis rate of MUG) (HsGUS (human GUS); [MUG] 0.8 mM): 1515.37 and 1395.3 | GUS activity (hydrolysis rate of MUG) (HsGUS (human GUS); [MUG] 1.2 mM): 1853.64 and 1948.04 | GUS activity (hydrolysis rate of MUG) (HsGUS (human GUS); [MUG] 1.6 mM): 2229.7 and 2415.81 | GUS activity (hydrolysis rate of MUG) (HsGUS (human GUS); [MUG] 2 mM): 2629.91 and 2703.96 | Ki ([1]; BdGUS, 50 mM HEPES pH 7.5, 37 °C): 4.9 ± 1.2 µM | 1/v [1, 3]: 0.7586 and 0.7898 and 0.7689 | GUS activity (hydrolysis rate of MUG) [1, 3]: 0.2944 and 0.2827 and 0.2904 | 1/v [1, 4]: 0.5053 and 0.4969 and 0.4765 | GUS activity (hydrolysis rate of MUG) [1, 4]: 0.4419 and 0.4494 and 0.4686 | 1/v [1, 5]: 0.3454 and 0.3517 and 0.3523 | GUS activity (hydrolysis rate of MUG) [1, 5]: 0.6465 and 0.6349 and 0.6338 | 1/v [1, 6]: 0.3078 and 0.2975 and 0.297 | GUS activity (hydrolysis rate of MUG) [1, 6]: 0.7254 and 0.7507 and 0.7517 | 1/v [1, 7]: 0.9443 and 1.067 and 1.0389 | GUS activity (hydrolysis rate of MUG) [1, 7]: 0.2365 and 0.2092 and 0.2149 | 1/v [1, 8]: 0.6301 and 0.6229 and 0.6281 | GUS activity (hydrolysis rate of MUG) [1, 8]: 0.3544 and 0.3585 and 0.3555 | 1/v [1, 9]: 0.4203 and 0.4167 and 0.4011 | GUS activity (hydrolysis rate of MUG) [1, 9]: 0.5313 and 0.5358 and 0.5568 | 1/v [1, 10]: 0.3397 and 0.3356 and 0.3208 | GUS activity (hydrolysis rate of MUG) [1, 10]: 0.6574 and 0.6654 and 0.6962 | 1/v [1, 11]: 1.396 and 1.589 and 1.568 | GUS activity (hydrolysis rate of MUG) [1, 11]: 0.1599 and 0.1405 and 0.1424 | 1/v [1, 12]: 0.9143 and 0.8906 and 0.8101 | GUS activity (hydrolysis rate of MUG) [1, 12]: 0.2442 and 0.2507 and 0.2757 | 1/v [1, 13]: 0.5734 and 0.5628 and 0.516 | GUS activity (hydrolysis rate of MUG) [1, 13]: 0.3894 and 0.3968 and 0.4327 | 1/v [1, 14]: 0.4154 and 0.412 and 0.4013 | GUS activity (hydrolysis rate of MUG) [1, 14]: 0.5375 and 0.5419 and 0.5564 | 1/v [1, 15]: 2.375 and 2.7756 and 2.7044 | GUS activity (hydrolysis rate of MUG) [1, 15]: 0.09401 and 0.08045 and 0.08257 | 1/v [1, 16]: 1.493 and 1.508 and 1.184 | GUS activity (hydrolysis rate of MUG) [1, 16]: 0.1495 and 0.1481 and 0.1887 | 1/v [1, 17]: 0.8717 and 0.8385 and 0.8277 | GUS activity (hydrolysis rate of MUG) [1, 17]: 0.2562 and 0.2663 and 0.2698 | 1/v [1, 18]: 0.5634 and 0.5659 and 0.5111 | GUS activity (hydrolysis rate of MUG) [1, 18]: 0.3964 and 0.3946 and 0.4369 | ΔΔH1–2 (enthalpy penalty of 2 relative to 1) (EcGUS; EcGUS in Tris buffer): +6.2 kcal mol^−1 | –TΔΔS1–2 (2 relative to 1) (EcGUS; EcGUS in Tris buffer): –5.6 kcal mol^−1 | entropy contribution to binding (EcGUS; EcGUS in Tris buffer): +7.1 kcal mol^−1 | ΔΔH1–2 (enthalpy penalty of 2 relative to 1) (EcGUS; EcGUS in phosphate buffer): +5.5 kcal mol^−1 | –TΔΔS1–2 (2 relative to 1) (EcGUS; EcGUS in phosphate buffer): –4.6 kcal mol^−1 | entropy contribution to binding (EcGUS; EcGUS in phosphate buffer): +5.0 kcal mol^−1 | Kd (EcGUS; [19]): 60 ± 4.9 nM | ΔG (EcGUS; [19]): –10.01 ± 0.58 kcal/mol | ΔH (EcGUS; [19]): –2.90 ± 0.23 kcal/mol | —TΔS (EcGUS; [19]): –7.11 ± 0.82 kcal/mol | Kd (EcGUS; [20]): 280 ± 50 nM | ΔG (EcGUS; [20]): –8.96 ± 0.09 kcal/mol | ΔH (EcGUS; [20]): –3.99 ± 0.06 kcal/mol | —TΔS (EcGUS; [20]): –4.97 ± 0.15 kcal/mol | Ki ([2]; 50 mM HEPES pH 7.5, 37 °C): 0.035 ± 0.009 µM | Ki ([2]; source data of Table 1, from plot of apparent Km against [inhibitor] (μM)): 0.0352 µM
